This is an account of results in patent US20240208994A1, “PLASMA KALLIKREIN INHIBITORS” (Merck Sharp & Dohme LLC, priority 2021, published 2024).

SMILES strings stand for the structures.

Test [1] addresses T1, Human plasma kallikrein (Homo sapiens, UniProt P03952).
T1 construct: yields a heavy chain (371 amino acids) and a light chain (248 amino acids); purchased Enzyme Research Laboratories
Nature of the test: Plasma Kallikrein Assay. The format is biochemical. Conditions: purified Human plasma kallikrein 0.5 nM, substrate Acetyl-K-P-R-AFC, HEPES pH 7.4, fluorescence 405 Ex/510 Em; read-out: PKal IC50. On the procedure: (§1) The effectiveness of a compound of the present invention as an inhibitor of plasma kallikrein can be determined using a relevant purified serine protease, and an appropriate synthetic substrate. The rate of hydrolysis of the chromogenic or fluorogenic substrate by the relevant serine protease was measured both in the absence and presence of compounds of the present invention. Assays were conducted at rt or at 37° C. […] A decrease in the rate of fluorescence change in the presence of inhibitor is indicative of enzyme inhibition. Such methods are known to one skilled in the art. The results of this assay are expressed as the half-maximal inhibitory concentrations (IC50), or the inhibitory constant, Ki.
Plasma kallikrein determinations were made in 50 mM HEPES buffer at pH 7.4 containing 150 mM NaCl, 5 mM CaCl2), and 0.1% PEG 8000 (polyethylene glycol: Fisher Scientific). Determinations were made using purified Human plasma kallikrein at a final concentration of 0.5 nM (Enzyme Research Laboratories) and the synthetic substrate, Acetyl-K-P-R-AFC (Sigma #C6608) at a concentration of […].
Activity assays were performed by diluting a stock solution of substrate at least tenfold to a final concentration ≤0.2 Km into a solution containing enzyme or enzyme equilibrated with inhibitor. Times required to achieve equilibration between enzyme and inhibitor were determined in control experiments. The reactions were performed under linear progress curve conditions and fluorescence increase measured at 405 Ex/510 Em nm. Values were converted to percent inhibition of the control reaction (after subtracting 100% Inhibition value). IC50 was determined by inflection point from a four parameter logistic curve fit. Ki was calculated using the Cheng Prusoff equation, Ki=IC50/(1+([S]/Km)).

Test [2] concerns the target human factor XIa (Homo sapiens, UniProt P03951). Nature of the test: Factor XIa Assay. The format is biochemical. Conditions: human factor XIa 0.04 nM, 30 min pre-incubation at 25° C., substrate GPR-AFC, pH 7.4, 60 min incubation; read-out: FXIa IC50. On the procedure:
as §1, with “Coagulation factor XIa” for “plasma kallikrein”
Compounds were pre-incubated for 30 min at 25° C. with human (0.04 nM) factor XIa in 50 mM HEPES buffer with 150 mM sodium chloride, 5 mM calcium chloride, 0.1% PEG 8000, pH 7.4. factor XIa enzymatic activity was determined by addition of the substrate glycine-proline-arginine-7-amido-4-trifluoromethylcoumarin (GPR-AFC) and measurement of the fluorescence at 400/505 nm after a 60 min incubation at 25° C. The % inhibition for each data point was calculated from the data and analyzed using the log (inhibitor) vs. response four parameters equation to determine the half-maximal inhibitory concentrations (IC50). The IC50 were converted to equilibrium inhibitory constants (Ki) using the Cheng-Prusoff equation.

T1 sequence (P03952 391-638 limits assumed): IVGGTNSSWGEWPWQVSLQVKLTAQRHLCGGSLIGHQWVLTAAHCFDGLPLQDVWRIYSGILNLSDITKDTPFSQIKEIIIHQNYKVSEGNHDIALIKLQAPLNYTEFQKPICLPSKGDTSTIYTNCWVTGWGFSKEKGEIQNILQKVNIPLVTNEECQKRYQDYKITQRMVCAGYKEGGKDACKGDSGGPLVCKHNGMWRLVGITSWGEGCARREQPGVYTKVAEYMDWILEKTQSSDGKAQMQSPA
T1 sequence (P03952 20-390 partner limits assumed): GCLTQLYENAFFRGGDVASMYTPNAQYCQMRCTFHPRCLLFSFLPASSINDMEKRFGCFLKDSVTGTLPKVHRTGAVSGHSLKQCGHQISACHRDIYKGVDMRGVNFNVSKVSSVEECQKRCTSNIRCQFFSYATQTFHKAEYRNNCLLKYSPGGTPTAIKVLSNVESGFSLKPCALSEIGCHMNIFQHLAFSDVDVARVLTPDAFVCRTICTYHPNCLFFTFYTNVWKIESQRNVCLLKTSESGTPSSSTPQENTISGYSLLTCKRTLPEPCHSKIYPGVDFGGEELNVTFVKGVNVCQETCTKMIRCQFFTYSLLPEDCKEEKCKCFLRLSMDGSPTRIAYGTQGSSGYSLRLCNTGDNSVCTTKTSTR
Sequence of human factor XIa (P03951 388-625 limits assumed): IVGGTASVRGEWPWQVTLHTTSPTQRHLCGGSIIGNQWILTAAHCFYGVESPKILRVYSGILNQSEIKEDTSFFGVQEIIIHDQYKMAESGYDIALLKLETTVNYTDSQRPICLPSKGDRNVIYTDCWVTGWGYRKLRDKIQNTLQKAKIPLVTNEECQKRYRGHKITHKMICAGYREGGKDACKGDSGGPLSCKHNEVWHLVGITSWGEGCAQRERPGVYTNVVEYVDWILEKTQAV
Sequence of human factor XIa (P03951 19-387 partner limits assumed): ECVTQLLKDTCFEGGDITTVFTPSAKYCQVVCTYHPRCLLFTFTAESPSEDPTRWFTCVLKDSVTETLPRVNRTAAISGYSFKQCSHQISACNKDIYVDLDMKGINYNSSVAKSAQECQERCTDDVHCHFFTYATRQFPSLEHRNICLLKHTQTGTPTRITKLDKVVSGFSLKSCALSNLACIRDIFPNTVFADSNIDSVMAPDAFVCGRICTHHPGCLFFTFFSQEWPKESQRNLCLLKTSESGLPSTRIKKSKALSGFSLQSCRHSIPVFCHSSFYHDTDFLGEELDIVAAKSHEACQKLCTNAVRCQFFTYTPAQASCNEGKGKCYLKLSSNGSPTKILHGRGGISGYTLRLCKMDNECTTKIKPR

For `Nc1c(Cl)c(-c2ccc(F)cc2F)nn1CC(=O)N1CCC[C@@]2(C1)OC(=O)Nc1ccc(Cl)c(F)c12` [Example 21, (R)-1′-(2-(5-Amino-4-chloro-3-(2,4-difluorophenyl)-1H-pyrazol-1-yl)acetyl)-6-chloro-5-fluorospiro[benzo[d][1,3]oxazine-4,3′-piperidin]-2(1H)-one], the values for the concentration for half-maximal inhibition (IC50) in test [1] and in test [2] were 19 nM and 325 nM, respectively.

Consider `Nc1c(Cl)c(-c2ccccc2)nn1CC(=O)N1CCC[C@@]2(C1)OC(=O)Nc1ccc(Cl)c(F)c12` [Example 22, (R)-1′-(2-(5-Amino-4-chloro-3-phenyl-1H-pyrazol-1-yl)acetyl)-6-chloro-5-fluorospiro[benzo[d][1,3]oxazine-4,3′-piperidin]-2(1H)-one], for which the concentration for half-maximal inhibition (IC50) in test [1] was 26.3 nM; in test [2], 516 nM.

For the compound `Nc1cc(-c2ccccc2)nn1CC(=O)N1CCC[C@@]2(C1)OC(=O)Nc1ccc(Cl)c(F)c12` [Example 23, (R)-1′-(2-(5-Amino-3-phenyl-1H-pyrazol-1-yl)acetyl)-6-chloro-5-fluorospiro[benzo[d][1,3]oxazine-4,3′-piperidin]-2(1H)-one], the IC50 in test [1] was 11.8 nM; in test [2], 1790 nM.

`Nc1cc(-c2ccccc2)nn1CC(=O)N1CC[C@@]2(C1)OC(=O)Nc1ccc(Cl)c(F)c12` [Example 24, (R)-1′-(2-(5-Amino-3-phenyl-1H-pyrazol-1-yl)acetyl)-6-chloro-5-fluorospiro[benzo[d][1,3]oxazine-4,3'-pyrrolidin]-2(1H)-one]: the IC50 in test [1] turned out to be 15.4 nM; in test [2], 114 nM.

For the compound `Nc1cc(-c2cccnn2)nn1CC(=O)N1CC[C@@]2(C1)OC(=O)Nc1ccc(Cl)c(F)c12` [Example 25, (R)-1′-(2-(5-Amino-3-(pyridazin-3-yl)-1H-pyrazol-1-yl)acetyl)-6-chloro-5-fluorospiro[benzo[d][1,3]oxazine-4,3′-pyrrolidin]-2(1H)-one], the values for the IC50 in test [1] and in test [2] were 12.7 nM and 367 nM, respectively.

With `Nc1c2c(nn1CC(=O)N1CCC[C@@]3(C1)OC(=O)Nc1ccc(Cl)c(F)c13)CCCC2` [Example 26, (R)-1′-(2-(3-Amino-4,5,6,7-tetrahydro-2H-indazol-2-yl)acetyl)-6-chloro-5-fluorospiro[benzo[d][1,3]oxazine-4,3′-piperidin]-2(1H)-one], the 50% inhibitory concentration (IC50) in test [1] came out at 22.2 nM; in test [2], 484 nM.

As for `Nc1cc(-c2ncc(F)cc2F)nn1CC(=O)N1CC[C@@]2(C1)OC(=O)Nc1ccc(Cl)c(F)c12` [Example 27, (R)-1′-(2-(5-Amino-3-(3,5-difluoropyridin-2-yl)-1H-pyrazol-1-yl)acetyl)-6-chloro-5-fluorospiro[benzo[d][1,3]oxazine-4,3′-pyrrolidin]-2(1H)-one], the IC50 in test [1] worked out at 25.3 nM; in test [2] it was 424 nM.

Turning to `Nc1cc(C2CC2)nn1CC(=O)N1CCC[C@@]2(C1)OC(=O)Nc1ccc(Cl)c(F)c12` [Example 28, (R)-1′-(2-(5-Amino-3-cyclopropyl-1H-pyrazol-1-yl)acetyl)-6-chloro-5-fluorospiro[benzo[d][1,3]oxazine-4,3′-piperidin]-2(1H)-one], the IC50 amounted to 16.7 nM in test [1] and 55 nM in test [2].

In the case of `Nc1c(Cl)c(C2CC2)nn1CC(=O)N1CCC[C@@]2(C1)OC(=O)Nc1ccc(Cl)c(F)c12` [Example 29, (R)-1′-(2-(5-Amino-4-chloro-3-cyclopropyl-1H-pyrazol-1-yl)acetyl)-6-chloro-5-fluorospiro[benzo[d][1,3]oxazine-4,3'-piperidin]-2(1H)-one], the values for the IC50 in test [1] and in test [2] were 32.3 nM and 1250 nM, respectively.

Regarding `Nc1c(F)c(-c2ccc(F)cc2F)nn1CC(=O)N1CCC[C@@]2(C1)OC(=O)Nc1ccc(Cl)c(F)c12` [Example 30, (R)-1′-(2-(5-Amino-3-(2,4-difluorophenyl)-4-fluoro-1H-pyrazol-1-yl)acetyl)-6-chloro-5-fluorospiro[benzo[d][1,3]oxazine-4,3'-piperidin]-2(1H)-one], the half-inhibitory concentration (IC50) in test [1] was found to be 37.4 nM; in test [2], 164 nM.

For `Nc1c(Cl)c(-c2ncc(F)cc2F)nn1CC(=O)N1CC[C@@]2(C1)OC(=O)Nc1ccc(Cl)c(F)c12` [Example 31, (R)-1′-(2-(5-Amino-4-chloro-3-(3,5-difluoropyridin-2-y1)-1H-pyrazol-1-yl)acetyl)-6-chloro-5-fluorospiro[benzo[d][1,3]oxazine-4,3′-pyrrolidin]-2(1H)-one], the concentration for half-maximal inhibition (IC50) in test [1] was 32.1 nM; in test [2], 1830 nM.

Regarding `Nc1cc(-c2ncc(F)cc2F)nn1CC(=O)N1CCC[C@@]2(C1)OC(=O)Nc1ccc(Cl)c(F)c12` [Example 32, (R)-1′-(2-(5-Amino-3-(3,5-difluoropyridin-2-y1)-1H-pyrazol-1-yl)acetyl)-6-chloro-5-fluorospiro[benzo [d][1,3]oxazine-4,3′-piperidin]-2(1H)-one], the figures for the IC50 in test [1] and in test [2] were 5.7 nM and 648 nM, respectively.

Consider `Nc1c(Cl)c(-c2ncc(F)cc2F)nn1CC(=O)N1CCC[C@@]2(C1)OC(=O)Nc1ccc(Cl)c(F)c12` [Example 33, (R)-1′-(2-(5-Amino-4-chloro-3-(3,5-difluoropyridin-2-y1)-1H-pyrazol-1-yl)acetyl)-6-chloro-5-fluorospiro[benzo[d][1,3]oxazine-4,3′-piperidin]-2(1H)-one], for which the half-inhibitory concentration (IC50) in test [1] is 7.7 nM; in test [2], 187 nM.

As to `Nc1c(Cl)c(-c2ncccc2F)nn1CC(=O)N1CCC[C@@]2(C1)OC(=O)Nc1ccc(Cl)c(F)c12` [Example 34, (R)-1′-(2-(5-Amino-4-chloro-3-(3-fluoropyridin-2-y1)-1H-pyrazol-1-yl)acetyl)-6-chloro-5-fluorospiro[benzo[d][1,3]oxazine-4,3′-piperidin]-2(1H)-one], the half-maximal inhibitory concentration (IC50) in test [1] is 8.9 nM; in test [2], 177 nM.

With `Nc1c(Cl)c(-c2ncccn2)nn1CC(=O)N1CCC[C@@]2(C1)OC(=O)Nc1ccc(Cl)c(F)c12` [Example 35, (R)-1′-(2-(5-Amino-4-chloro-3-(pyrimidin-2-y1)-1H-pyrazol-1-yl)acetyl)-6-chloro-5-fluorospiro[benzo[d][1,3]oxazine-4,3′-piperidin]-2(1H)-one], the IC50 was determined as 24.5 nM in test [1] and 280 nM in test [2].

Consider `Nc1cc(-c2ncccc2F)nn1CC(=O)N1CCC[C@@]2(C1)OC(=O)Nc1ccc(Cl)c(F)c12` [Example 36, (R)-1′-(2-(5-Amino-3-(3-fluoropyridin-2-y1)-1H-pyrazol-1-yl)acetyl)-6-chloro-5-fluorospiro [benzo[d][1,3]oxazine-4,3′-piperidin]-2(1H)-one], for which the half-inhibitory concentration (IC50) turned out to be 8.4 nM in test [1] and 826 nM in test [2].

Regarding `Nc1cc(-c2c(F)cccc2F)nn1CC(=O)N1CC[C@@]2(C1)OC(=O)Nc1ccc(Cl)c(F)c12` [Example 37, (R)-1′-(2-(5-Amino-3-(2,6-difluorophenyl)-1H-pyrazol-1-yl)acetyl)-6-chloro-5-fluorospiro[benzo[d][1.3]oxazine-4,3′-pyrrolidin]-2(1H)-one], the IC50 in test [1] stood at 2.2 nM; in test [2], 102 nM.

For the compound `Nc1cc(-c2ccccn2)nn1CC(=O)N1CC[C@@]2(C1)OC(=O)Nc1ccc(Cl)c(F)c12` [Example 38, (R)-1′-(2-(5-Amino-3-(pyridin-2-y1)-1H-pyrazol-1-yl)acetyl)-6-chloro-5-fluorospiro[benzo[d][1,3]oxazine-4,3′-pyrrolidin]-2(1H)-one], the values for the concentration for half-maximal inhibition (IC50) in test [1] and in test [2] were 28 nM and 665 nM, respectively.

Take `Nc1cc(-c2cccs2)nn1CC(=O)N1CC[C@@]2(C1)OC(=O)Nc1ccc(Cl)c(F)c12` [Example 39, (R)-1′-(2-(5-Amino-3-(thiophen-2-y1)-1H-pyrazol-1-yl)acetyl)-6-chloro-5-fluorospiro[benzo[d] [1,3]oxazine-4,3′-pyrrolidin]-2(1H)-one]: the results for the 50% inhibitory concentration (IC50) in test [1] and in test [2] were 13 nM and 254 nM, respectively.

In general, IC50 refers to the concentration that inhibits the measured activity by half.
